From patent US20090111781A1, “Use of Cymipristone Type Compounds in Aids Treatment” (SHANGHAI THREE-ALLIANCE BIOTECHNOLOGIES CO., LTD., priority 2005, published 2009)
In brackets after ≈: the same amount, converted by molar mass.

How the values were obtained:
estrogen receptor ERα = molecular target: T1, estrogen receptor ERα (Homo sapiens, UniProt P03372); assay: Binding activity on human nuclear receptor ERα; conditions: mean ± SD, n = 4
T1 sequence (P03372 1-595): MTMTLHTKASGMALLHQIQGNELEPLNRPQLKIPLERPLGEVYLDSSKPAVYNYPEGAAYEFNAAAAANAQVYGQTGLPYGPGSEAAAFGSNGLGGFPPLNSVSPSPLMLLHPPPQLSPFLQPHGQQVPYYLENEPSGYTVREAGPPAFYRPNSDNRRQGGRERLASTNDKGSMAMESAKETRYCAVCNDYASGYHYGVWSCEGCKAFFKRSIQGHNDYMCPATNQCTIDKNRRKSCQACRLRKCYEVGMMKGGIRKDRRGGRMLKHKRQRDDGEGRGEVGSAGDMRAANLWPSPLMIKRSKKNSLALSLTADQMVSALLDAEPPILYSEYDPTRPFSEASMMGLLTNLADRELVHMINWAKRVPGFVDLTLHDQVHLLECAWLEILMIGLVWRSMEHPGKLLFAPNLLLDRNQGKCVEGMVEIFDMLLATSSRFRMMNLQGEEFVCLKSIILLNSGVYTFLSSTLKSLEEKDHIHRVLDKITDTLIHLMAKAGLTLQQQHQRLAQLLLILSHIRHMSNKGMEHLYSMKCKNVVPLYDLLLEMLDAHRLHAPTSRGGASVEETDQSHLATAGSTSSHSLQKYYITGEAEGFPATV
Method: Buffer solution is composed of 25 mM NaPO4, 20 mM NaMoO4, 10 mM KF and 10% glycerol (pH=7.3) and stored under 4° C. Stock solution is prepared with CHAPS and DTT and stored under −20° C. […] Add 2.5 μl/hole into 96-pore plate. Take out appropriate amount of buffer solution reserve into solution to make the final concentration of CHAPS and DDT to become 0.25 mM and 2 mM respectively. Add protease inhibitors (aprotinin and leupeptin) to make its final concentration to become 1 μg/μl, and place in an ice bath. After adding human nuclear receptor GR (1:8), PR (1:100), ER (1:2000), AR (1:200) and MR (1:40) into the reaction system respectively, adequately mix suitable quantity of [^3H]-dexamethasone, [^3H]-progesterone, [^3H]-estradiol and [^3H]-DHT (from Amersham), rapidly add into 96-pore plate (100 μl/pore) and incubate overnight under 4° C. On the next day, add 25 μl of hydroxyapatite suspension into each pore and mix with shaking. After incubating for 10 min, separate by centrifuge for 3 min at 2500 rpm. The precipitate is washed with 100 μl of buffer solution and separated by centrifuge twice. Add 150 μl of scintillation solution (from Perkin Elmer) into each pore, mix with shaking and count by MicroBeta counter.

[1] = molecular target: T2, human glucocorticoid receptor (Homo sapiens, UniProt P04150); assay: Antagonism on dexamethasone in CV-1 cells cotransfected with GR and luciferase reporter; format: cell-based
T2 construct: expressed in transfected cells; host or cells: CV-1 cells
T2 sequence (P04150 1-777): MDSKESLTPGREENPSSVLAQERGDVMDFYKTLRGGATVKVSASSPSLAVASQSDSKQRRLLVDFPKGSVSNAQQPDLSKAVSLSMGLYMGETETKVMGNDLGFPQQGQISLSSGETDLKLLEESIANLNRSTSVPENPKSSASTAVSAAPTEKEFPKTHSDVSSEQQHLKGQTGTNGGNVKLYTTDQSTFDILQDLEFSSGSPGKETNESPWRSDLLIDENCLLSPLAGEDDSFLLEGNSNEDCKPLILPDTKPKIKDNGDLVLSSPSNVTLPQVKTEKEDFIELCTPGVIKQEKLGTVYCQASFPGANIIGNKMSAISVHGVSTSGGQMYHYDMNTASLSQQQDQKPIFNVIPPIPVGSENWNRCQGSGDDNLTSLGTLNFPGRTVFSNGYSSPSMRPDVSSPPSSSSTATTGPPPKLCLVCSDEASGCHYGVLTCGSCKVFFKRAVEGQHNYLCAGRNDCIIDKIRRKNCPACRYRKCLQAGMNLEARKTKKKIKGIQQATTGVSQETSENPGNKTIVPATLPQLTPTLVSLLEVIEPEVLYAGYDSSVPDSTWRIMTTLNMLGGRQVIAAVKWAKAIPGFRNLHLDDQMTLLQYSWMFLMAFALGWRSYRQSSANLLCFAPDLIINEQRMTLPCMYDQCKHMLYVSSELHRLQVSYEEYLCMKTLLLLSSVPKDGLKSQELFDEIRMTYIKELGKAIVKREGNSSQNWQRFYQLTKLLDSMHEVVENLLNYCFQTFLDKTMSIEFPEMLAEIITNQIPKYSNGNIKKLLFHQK
Method: Inoculate (6×10^5) of CV-1 cells into cell culture dish of 60 mm diameter using phenol red-free low-sugar DMEM containing 10% FBS as culture medium and incubate overnight under 37° C. and 5% CO2. Suction according to 1:5 ratio pipet 2 μg of plasmid carried GR genes and luciferase reporting genes, cotransfect CV-1 cells with FuGene 6 transfection reagent (from Roche), and incubate for 8 hours under above conditions, Inoculate the transfected cells into 96-pore micro culture plate, 8000 cells/100 μl/pore, and incubate cells to adhibit on the wall of dish. […] Discard the culture liquid, wash the cells twice with PBS, and pipet off all residual PBS. fragment the cells by CCLR Assay Kit (from Progema) for 15 min. Add 20 μl of fragmentation solution into 96 pore cell culture plate with white edge and white bottom, add CCLR substrate (from Progema), 100 μl/pore, and immediately detect the chemical luminescence count value caused by activated luciferase on Wallac 1420 Multilabel Counter.

[2] = MTT toxicity on PBMC infected by HIV-1 AZT-sensitive strain 018a; conditions: human, PBMC, 018a
Method: Collect cells with curette, infect cells with 10^−2 AZT sensitive (018a) or AZT resistant (018c) virus strain liquid, and adsorb for 2 hours, Wash off unabsorbed virus with 1640 culture medium without serum, prepare cells infected by virus to 1×10^6/ml with culture solution, and inoculate on 96-pore culture plate, 100 μl/pore. […] Set cell control group and virus infected cell control group. Incubate under 37° C. and 5% CO2. On the fourth day (96 hours), pipette out the supernatant liquid and store under −20° C. for determination of HIV-1 P24 antigen titer and calculation of drug inhibitory action. Add MTT staining to cells for determination of cytotoxicity. Determination of cytotoxicity by MTT staining: Add 10 μl of 5 mg/ml MTT stain into each pore, continue to incubate under 37° C., 5% CO2 and saturated humidity for 4 hours. […] Determine the HIV-1 P24 antigen titer according to the operation procedure provided by the HIV-1 P24 antigen reagent kit. Compare the drug-added group with virus control group. […] Calculation method of 50% toxic concentration (CC50), 50% effective concentration (EC50) and selection index (SI): […]

[3] = molecular target: T3, human glucocorticoid receptor (GR) (Homo sapiens, UniProt P04150); assay: Binding activity on human nuclear receptor GR ([3H]-dexamethasone competition); conditions: mean ± SD, n = 4
T3 sequence (P04150 1-777): T2 sequence (P04150 1-777)
Method: Buffer solution is composed of 25 mM NaPO4, 20 mM NaMoO4, 10 mM KF and 10% glycerol (pH=7.3) and stored under 4° C. Stock solution is prepared with CHAPS and DTT and stored under −20° C. […] Add 2.5 μl/hole into 96-pore plate. Take out appropriate amount of buffer solution reserve into solution to make the final concentration of CHAPS and DDT to become 0.25 mM and 2 mM respectively. Add protease inhibitors (aprotinin and leupeptin) to make its final concentration to become 1 μg/μl, and place in an ice bath. […] On the next day, add 25 μl of hydroxyapatite suspension into each pore and mix with shaking. After incubating for 10 min, separate by centrifuge for 3 min at 2500 rpm. The precipitate is washed with 100 μl of buffer solution and separated by centrifuge twice. Add 150 μl of scintillation solution (from Perkin Elmer) into each pore, mix with shaking and count by MicroBeta counter.

CC#C[C@]1(O)CC[C@H]2[C@@H]3CCC4=CC(=O)CCC4=C3[C@@H](c3ccc(N(C)C4CCCCC4)cc3)C[C@@]21C [Cymipristone, 11β-[4-(N-methyl-N-cyclohexylamino)phenyl]-17α-(1-propynyl)-17β-hydroxyl-4,9-estradiene-3-one]
IC50 (estrogen receptor ERα): 516 ± 62.8 nM
IC50 [1]: 0.26 ± 0.02 nM
Antagonistic activity on human glucocorticoid receptor function caused by dexamethasone (in words) ([1]; gene cotransfected live cells): significant antagonistic activity
CC50 at 96 h ([2]; 50% toxic concentration CC50, Average): 130 µg/mL (≈ 261 µM)
CC50 at 96 h ([2]; 50% toxic concentration CC50, Experiment 1): 104 µg/mL (≈ 208 µM)
CC50 at 96 h ([2]; 50% toxic concentration CC50, Experiment 2): 156 µg/mL (≈ 314 µM)
IC50 [3]: 0.45 ± 0.069 nM
